In ChEMBL document CHEMBL5260848, “Recent advancements in the development of bioactive pyrazoline derivatives” (Eur J Med Chem, 2020):
Values after ≈ are worked out from the molar mass of the structure shown. Counter-ions that a name gives are not always drawn.

Assays:
Aspergillus clavatus = experiment: Antifungal activity against Aspergillus clavatus; format: functional
Candida albicans [1] = experiment: Antifungal activity against Candida albicans; format: functional
Aspergillus niger = experiment: Antifungal activity against Aspergillus niger; format: functional
HSC-2 = experiment: Cytotoxicity against human HSC-2 cells assessed as reduction in cell viability incubated for 48 hrs by MTT assay; format: functional
HSC-3 = experiment: Cytotoxicity against human HSC-3 cells assessed as reduction in cell viability incubated for 48 hrs by MTT assay; format: functional
[2] = Cytotoxicity against human HGF cells assessed as reduction in cell viability incubated for 48 hrs by MTT assay; format: functional
[3] = Cytotoxicity against human HPLF cells assessed as reduction in cell viability incubated for 48 hrs by MTT assay; format: functional
[4] = Cytotoxicity against human HPC cells assessed as reduction in cell viability incubated for 48 hrs by MTT assay; format: functional
Carbonic anhydrase 9 [5] = biological target: T1, Carbonic anhydrase 9 (Homo sapiens, UniProt Q16790); experiment: Inhibition of human CA9 preincubated for 15 mins by phenol red dye based stopped flow CO2 hydration assay
Carbonic anhydrase 12 = Carbonic anhydrase 12 (Homo sapiens, UniProt O43570); experiment: Inhibition of human CA12 preincubated for 15 mins by phenol red dye based stopped flow CO2 hydration assay
Mus musculus [6] = experiment: Antidiabetic activity against albino mouse assessed as reduction in blood glucose level at 0.2 mmol/Kg relative to control; format: functional; set-up: scale not given: the % may be the effect or the level left
Ca9-22 = experiment: Cytotoxicity against human Ca9-22 cells assessed as reduction in cell viability incubated for 48 hrs by MTT assay; format: functional
Carbonic anhydrase 1 [7] = biological target: T2, Carbonic anhydrase 1 (Homo sapiens, UniProt P00915); experiment: Inhibition of human recombinant CA1
Carbonic anhydrase 2 [8] = biological target: T3, Carbonic anhydrase 2 (Homo sapiens, UniProt P00918); experiment: Inhibition of human recombinant CA2
Carbonic anhydrase 4 = Carbonic anhydrase 4 (Homo sapiens, UniProt P22748); experiment: Inhibition of human recombinant CA4
Carbonic anhydrase 9 [9] = biological target: T1, Carbonic anhydrase 9
Staphylococcus aureus = experiment: microbe, parasite or virus in culture
Candida albicans [10] = experiment: Antifungal activity against Candida albicans by agar dilution method; format: functional
[11] = Antioxidant activity assessed as DPPH radical scavenging activity; format: functional
[12] = Cytotoxicity against human Panel NCI-58 (58 carcinoma cell lines) cells; format: functional
Mus musculus [13] = organism: Mus musculus; experiment: Antidepressant activity in Swiss albino mouse assessed as decrease in immobility time by forced swimming test; format: functional
Mus musculus [14] = organism: Mus musculus; experiment: Antidepressant activity in Swiss albino mouse assessed as decrease in immobility time by tail suspension test; format: functional
Carbonic anhydrase 1 [15] = biological target: T2, Carbonic anhydrase 1
Carbonic anhydrase 2 [16] = biological target: T3, Carbonic anhydrase 2
MCF7 = experiment: Cytotoxicity against human MCF7 cells; format: functional, cell-based

T2 sequence (P00915 whole entry): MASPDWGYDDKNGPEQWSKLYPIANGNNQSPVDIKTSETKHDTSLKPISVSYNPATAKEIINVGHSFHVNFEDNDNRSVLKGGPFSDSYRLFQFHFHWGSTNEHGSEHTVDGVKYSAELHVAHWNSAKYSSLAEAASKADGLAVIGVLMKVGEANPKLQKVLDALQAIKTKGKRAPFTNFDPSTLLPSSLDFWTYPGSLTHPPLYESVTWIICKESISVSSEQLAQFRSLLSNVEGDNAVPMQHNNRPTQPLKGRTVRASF
Sequence of Carbonic anhydrase 12 (O43570 whole entry): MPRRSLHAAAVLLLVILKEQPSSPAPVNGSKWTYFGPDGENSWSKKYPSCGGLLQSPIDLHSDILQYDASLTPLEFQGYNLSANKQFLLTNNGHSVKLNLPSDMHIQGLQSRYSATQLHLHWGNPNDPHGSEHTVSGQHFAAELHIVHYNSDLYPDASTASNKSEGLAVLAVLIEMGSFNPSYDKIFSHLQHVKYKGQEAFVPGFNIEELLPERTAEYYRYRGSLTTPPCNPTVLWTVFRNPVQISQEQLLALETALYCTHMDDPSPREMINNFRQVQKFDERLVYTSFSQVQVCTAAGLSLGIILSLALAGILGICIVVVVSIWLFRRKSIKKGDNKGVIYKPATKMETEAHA
Sequence of Carbonic anhydrase 4 (P22748 whole entry): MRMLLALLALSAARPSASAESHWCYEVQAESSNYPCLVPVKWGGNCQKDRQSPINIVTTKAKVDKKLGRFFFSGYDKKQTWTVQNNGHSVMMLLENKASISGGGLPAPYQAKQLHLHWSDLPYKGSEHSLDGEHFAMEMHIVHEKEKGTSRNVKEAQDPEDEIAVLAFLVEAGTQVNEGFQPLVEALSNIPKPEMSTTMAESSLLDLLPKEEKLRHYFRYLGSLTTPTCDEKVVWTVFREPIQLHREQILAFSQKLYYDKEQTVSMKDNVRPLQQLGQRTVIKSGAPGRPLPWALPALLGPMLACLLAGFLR

O=C(c1ccncc1)N1N=C(c2ccc(Br)cc2)CC1c1cc2ccccc2nc1Cl (stereo not drawn)
MIC (Aspergillus clavatus): 50 µg/mL (≈ 102 µM) | MIC (Candida albicans [1]): 12.5 µg/mL (≈ 25.4 µM) | MIC (Aspergillus niger): 12.5 µg/mL (≈ 25.4 µM)

NS(=O)(=O)c1ccc(N2N=C(c3ccc(O)cc3)CC2c2ccc([N+](=O)[O-])cc2)cc1 (stereo not drawn)
CC50 (HSC-2): 39.3 µM | CC50 (HSC-3): 39.3 µM | CC50 [2]: 39.3 µM | CC50 [3]: 39.3 µM | CC50 [4]: 39.3 µM | Ki (Carbonic anhydrase 9 [5]): 0.0535 µM | Ki (Carbonic anhydrase 12): 0.0062 µM

Cc1ccc(C2=NN(c3ccc(S(=O)(=O)NC(=O)NC4CCCCC4)cc3)C(c3ccc(F)cc3)C2)cc1 (stereo not drawn)
Activity (Mus musculus [6]): 16%

COc1ccc(C2CC(c3ccc(O)cc3)=NN2c2ccc(S(N)(=O)=O)cc2)cc1 (stereo not drawn)
CC50 (Ca9-22): 39.3 µM | CC50 (HSC-2): 39.3 µM | CC50 (HSC-3): 39.3 µM | CC50 [2]: 39.3 µM | CC50 [3]: 39.3 µM | CC50 [4]: 39.3 µM | Ki (Carbonic anhydrase 9 [5]): 0.0535 µM | Ki (Carbonic anhydrase 12): 0.0062 µM

CC(=O)N1N=C(c2ccc(OS(N)(=O)=O)cc2)CC1c1cc(Cl)ccc1Cl (stereo not drawn)
Ki (Carbonic anhydrase 1 [7]): 2.46 µM | Ki (Carbonic anhydrase 2 [8]): 0.0004 µM | Ki (Carbonic anhydrase 4): 0.0177 µM | Ki (Carbonic anhydrase 9 [9]): 0.0148 µM

COC(=O)C1N=NN(CC(=O)N2N=C(c3nnn(Cc4ccccc4)c3C)CC2c2cccs2)C1C(=O)OC (stereo not drawn)
MIC (Staphylococcus aureus): 3.9 µg/mL (≈ 7.08 µM)

Cc1ccc2cc(C3CC(c4cc(Br)ccc4O)=NN3)c3nnnn3c2c1 (stereo not drawn)
MIC (Candida albicans [10]): 25 µg/mL (≈ 59.1 µM)

CC(=O)N1N=C(c2ccc(OS(N)(=O)=O)cc2)CC1c1ccc([N+](=O)[O-])cc1 (stereo not drawn)
Ki (Carbonic anhydrase 1 [7]): 2.46 µM | Ki (Carbonic anhydrase 2 [8]): 0.0004 µM | Ki (Carbonic anhydrase 4): 0.0177 µM | Ki (Carbonic anhydrase 9 [9]): 0.0148 µM

CCOC(=O)C1N=NN(CC(=O)N2N=C(c3nnn(Cc4ccccc4)c3C)CC2c2cccs2)C1C(=O)OCC (stereo not drawn)
MIC (Staphylococcus aureus): 3.9 µg/mL (≈ 6.74 µM)

COc1ccc2c(c1)cc(C1CC(c3cc(Br)ccc3O)=NO1)c1nnnn12 (stereo not drawn)
IC50 [11]: 26.5 µg/mL (≈ 60.2 µM)

COc1cccc2c1C(=O)c1c(O)c3c(c(O)c1C2=O)C[C@@](O)(C(=O)CO)C[C@@H]3O[C@H]1C[C@H](N)[C@H](O)[C@H](C)O1 [DOXORUBICIN HYDROCHLORIDE]
GI50 [12]: 0.02 µM

Cc1nc(-c2cccc(Cl)c2Cl)ccc1C1=NNC(c2cc(F)cc(F)c2)C1 (stereo not drawn)
Time (Mus musculus [13]): 66.67 s | Time (Mus musculus [14]): 70.33 s

NS(=O)(=O)c1ccc(N2N=C(c3ccc(O)cc3)CC2c2ccc(F)cc2)cc1 (stereo not drawn)
CC50 (Ca9-22): 39.3 µM | CC50 (HSC-2): 39.3 µM | CC50 (HSC-3): 39.3 µM | CC50 [2]: 39.3 µM | CC50 [3]: 39.3 µM | CC50 [4]: 39.3 µM | Ki (Carbonic anhydrase 9 [5]): 0.0535 µM | Ki (Carbonic anhydrase 12): 0.0062 µM

Cc1nc(-c2ccc(F)cc2)ccc1C1=NNC(c2ccc(Br)cc2)C1 (stereo not drawn)
Time (Mus musculus [13]): 66.67 s | Time (Mus musculus [14]): 70.33 s

NS(=O)(=O)c1ccc(N2N=C(c3ccc(O)cc3)CC2c2cccs2)cc1 (stereo not drawn)
Ki (Carbonic anhydrase 1 [15]): 0.232 µM | CC50 (Ca9-22): 39.3 µM | CC50 (HSC-2): 39.3 µM | CC50 (HSC-3): 39.3 µM | CC50 [2]: 39.3 µM | CC50 [3]: 39.3 µM | CC50 [4]: 39.3 µM | Ki (Carbonic anhydrase 12): 0.0062 µM | Ki (Carbonic anhydrase 2 [16]): 0.342 µM

O=C(Nc1ccccc1)NS(=O)(=O)c1ccc(N2N=C(c3ccc(Br)cc3)CC2c2ccc(F)cc2)cc1 (stereo not drawn)
Activity (Mus musculus [6]): 16%

C[C@]12CC[C@@H]3c4ccc(O)cc4CC[C@H]3[C@@H]1CC1C2=NN(c2ccccc2)C1c1cccs1 (stereo partly drawn)
IC50 (MCF7): 0.043 µM

Cc1nc(-c2ccc(F)cc2)ccc1C1=NNC(c2cc(F)cc(F)c2)C1 (stereo not drawn)
Time (Mus musculus [13]): 66.67 s | Time (Mus musculus [14]): 70.33 s

O=C(c1ccncc1)N1N=C(c2ccccc2Cl)CC1c1cc2ccccc2nc1Cl (stereo not drawn)
MIC (Aspergillus clavatus): 12.5 µg/mL (≈ 27.9 µM) | MIC (Candida albicans [1]): 12.5 µg/mL (≈ 27.9 µM) | MIC (Aspergillus niger): 12.5 µg/mL (≈ 27.9 µM)

O=C(Nc1ccc(Cl)cc1)NS(=O)(=O)c1ccc(N2N=C(c3ccc(Br)cc3)CC2c2ccc(F)cc2)cc1 (stereo not drawn)
Activity (Mus musculus [6]): 16%

Cc1nc(-c2ccc(Br)cc2)ccc1C1=NNC(c2cc(F)cc(F)c2)C1 (stereo not drawn)
Time (Mus musculus [13]): 66.67 s | Time (Mus musculus [14]): 70.33 s

CC(=O)N1N=C(c2ccc(OS(N)(=O)=O)cc2)CC1c1ccc(C(F)(F)F)cc1 (stereo not drawn)
Ki (Carbonic anhydrase 1 [7]): 2.46 µM | Ki (Carbonic anhydrase 2 [8]): 0.0004 µM | Ki (Carbonic anhydrase 4): 0.0177 µM | Ki (Carbonic anhydrase 9 [9]): 0.0148 µM

Cc1nc(-c2ccc(Br)cc2)ccc1C1=NNC(c2ccc(Br)cc2)C1 (stereo not drawn)
Time (Mus musculus [13]): 66.67 s | Time (Mus musculus [14]): 70.33 s

Cc1ccc(C2=NN(c3ccc(S(=O)(=O)NC(=O)Nc4ccc(Cl)cc4)cc3)C(c3ccc(F)cc3)C2)cc1 (stereo not drawn)
Activity (Mus musculus [6]): 16%

NS(=O)(=O)c1ccc(N2N=C(c3ccc(O)cc3)CC2c2ccc(Cl)cc2Cl)cc1 (stereo not drawn)
CC50 (Ca9-22): 39.3 µM | CC50 (HSC-2): 39.3 µM | CC50 (HSC-3): 39.3 µM | CC50 [2]: 39.3 µM | CC50 [3]: 39.3 µM | CC50 [4]: 39.3 µM | Ki (Carbonic anhydrase 9 [5]): 0.0535 µM | Ki (Carbonic anhydrase 12): 0.0062 µM

CC(=O)N1N=C(c2ccc(F)cc2)CC1c1cccc(OS(N)(=O)=O)c1 (stereo not drawn)
Ki (Carbonic anhydrase 1 [7]): 2.46 µM | Ki (Carbonic anhydrase 2 [8]): 0.0004 µM | Ki (Carbonic anhydrase 4): 0.0177 µM | Ki (Carbonic anhydrase 9 [9]): 0.0148 µM

COc1ccc2c(c1)cc(/C=C/C(=O)c1cc(Br)ccc1O)c1nnnn12
IC50 [11]: 25.4 µg/mL (≈ 59.7 µM)
